Reference: paper PMC6120238, “Crystal structure of the retroviral protease‐like domain of a protozoal DNA damage‐inducible 1 protein” (FEBS Open Bio, 2018)

Legend:
LmDdi1_1–390 (LmDdi1) [1] = biological target: T1, LmDdi1_1–390 (LmDdi1) (Leishmania major, UniProt I7HUG0); assay: bio-layer interferometry, protein on Ni-NTA sensor, […] Langmuir global fit; format: binding; conditions: 20 mM MES pH 6.0, 200 mM NaCl, 1% DMSO; inhibitor 75-600 μM; weak signal, affinity could not be quantified
T1 construct: gene DDI1; full-length residues 1-390 (UBL, RVP and UBA domains), synthetic gene 1170 bp, N-terminal His6 tag (pET-28a, NdeI/HindIII), E. coli BL21; Ni-NTA and gel filtration; immobilised by the tag on Ni-NTA sensor; RVP domain homodimer in crystal; PDB 5YS4 from this construct, 5YQ8 from construct 184-390
T1 sequence (I7HUG0 1-390): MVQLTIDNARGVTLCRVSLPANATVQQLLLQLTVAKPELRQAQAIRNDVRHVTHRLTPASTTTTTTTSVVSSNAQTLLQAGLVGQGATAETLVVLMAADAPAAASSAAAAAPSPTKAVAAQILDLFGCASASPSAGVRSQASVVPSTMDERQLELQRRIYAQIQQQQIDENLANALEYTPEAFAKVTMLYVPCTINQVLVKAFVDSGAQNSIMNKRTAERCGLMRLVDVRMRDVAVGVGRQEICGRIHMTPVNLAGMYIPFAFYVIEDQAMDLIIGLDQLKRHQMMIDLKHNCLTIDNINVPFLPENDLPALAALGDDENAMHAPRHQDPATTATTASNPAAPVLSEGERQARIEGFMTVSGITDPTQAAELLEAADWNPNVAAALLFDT

LmDdi1_1–390 (LmDdi1) [2] = biological target: T1, LmDdi1_1–390 (LmDdi1); assay: as above; format: binding

| SMILES | bio-layer interferometry, protein on Ni-NTA sensor, 1:1 Langmuir global fit (LmDdi1_1–390 (LmDdi1) [1]) | Kd (LmDdi1_1–390 (LmDdi1) [2]) |
| --- | --- | --- |
| Cc1c(O)cccc1C(=O)N[C@@H](CSc1ccccc1)[C@H](O)CN1C[C@H]2CCCC[C@H]2C[C@H]1C(=O)NC(C)(C)C [nelfinavir] | Nelfinavir showed much less binding, and the binding affinity could not be quantified | – |
| CC(C)(C)NC(=O)[C@@H]1C[C@@H]2CCCC[C@@H]2CN1C[C@@H](O)[C@H](Cc1ccccc1)NC(=O)[C@H](CC(N)=O)NC(=O)c1ccc2ccccc2n1 [saquinavir] | – | 314 ± 12.8 µM |
